Data on 9 molecules can be found in PubChem BioAssay AID1919002 (Molecular Pharmacology Branch, DTP, NCI, 2023).

Values joined by “and” are separate entries in the source; they are usually repeats but may differ in a detail not shown here. Equal entries are not always repeated.

The test relates to 743489-274-T-PDC complex spheroid growth. The test can be described thus: Anticancer human tumor 743489-274-T-PDC patient-derived renal cell carcinoma cell line growth inhibition [AhR]. As to conditions: for viability, T/C: stronger effect = lower value; for IC50: curve of compound. An excerpt:
Multicellular complex tumor spheroid response to aryl hydrocarbon receptor antagonists in combination with a variety of drugs and investigational agents in selected tumor cell lines
The current study was undertaken to assess response to aryl hydrocarbon receptor antagonists in combination with standard-of-care drugs and investigational agents in solid tumor complex spheroid models. Complex spheroids include a stromal component modeled by human endothelial cells (HUVEC) and fibroblasts modeled by human mesenchymal stem cells (MSCs). The concentration ranges selected for each drug and investigational agent were based upon clinically achievable concentrations if the clinical Cmax of the agent was known.
Compounds. The drugs and investigational agents: BAY 2416964 (NSC825713), GNF351 (NSC835774), CH-223191 (NSC835775), CPI-455 (NSC825282), aza-TdCyd (NSC777586), decitabine (NSC127716), belinostat (NSC758774), entinostat (NSC756642), pevonedistat (NSC761192), tazemetostat (NSC777109), talazoparib (NSC765396), olaparib (NSC753686), selinexor (NSC780203), nedisertib (M3814, NSC802822), bortezomib (NSC756655), venetoclax (NSC766270), doxorubicin (NSC123127), elimusertib (BAY189344, NSC800525), ceralasertib (AZD6738, NSC777638), TAK-243 (NSC785004), alisertib (NSC759677), etoposide (NSC141540), topotecan (NSC609699), eribulin (NSC707389), gemcitabine (NSC613327), carboplatin (NSC241240), cisplatin (NSC119875), and SN-38 (NSC673596) were obtained from the National Cancer Institute (NCI) Developmental Therapeutics Program Chemical Repository (32). The FDA-approved anticancer drug set is available from the Developmental Therapeutics Program at https://dtp.cancer.gov/organization/dscb/obtaining/available plates.htm. […] The stock solutions were prepared in dimethyl sulfoxide (DMSO, Sigma-Aldrich, St. Louis, MO, cat. D2650), except for the platinum compounds which were prepared in saline (Quality Biological, Gaithersburg, MD, cat. 114-055-101), at 800-fold the tested concentration and stored at -70 degrees C prior to their use. All drugs and investigational agents were tested over a range starting from a high concentration at or near the clinical Cmax and decreasing in half-log increments. If the clinical Cmax for an agent had not been determined, the highest concentration tested was 10 microM (Table 1).
Cell Culture. All cells were maintained in an incubator at 37 degrees C and 5% CO2 with 95% humidity. The PDC lines were cultured according to standard operating procedures established by the NCI PDMR (https://pdmr.cancer.gov). Briefly, all PDCs were thawed and cultured in Matrigel-coated flasks prepared with a working solution of 1X Ham's F-12 nutrient mix, without supplementation (Invitrogen, Waltham, MA, cat. 11765054), 100 U/mL penicillin-streptomycin (Invitrogen, cat. 15140122), and 2.5% Matrigel (Corning Inc., Corning, NY, cat. 354248) for the first three passages. All PDCs were cultured in complete DMEM/F-12 media containing advanced DMEM/F-12 (Invitrogen, cat. 12634028), 4.9% defined fetal bovine serum, heat inactivated (HyClone Laboratories Inc., Logan, UT, cat. SH30070.03HI), 389 ng/mL hydrocortisone (Sigma-Aldrich, cat. H4001), 9.7 ng/mL human EGF recombinant protein (Invitrogen, cat. PHG0313), 23.4 microg/mL adenine (Sigma-Aldrich, cat. A2786), 97.3 U/mL penicillin-streptomycin (Invitrogen, cat. 15140122), 1.9 mM L-glutamine (Invitrogen, cat. 25030081), and 9.7 microM Y-27632 dihydrochloride (Tocris Bioscience, Bristol, United Kingdom, cat. 1254). The PDCs were cultured in complete DMEM/F12 media without 10 microM Y-27632 dihydrochloride for at least two passages prior to the screen. The established cell lines NCI-H1341 and […] were cultured in DMEM/F-12, HEPES (Invitrogen, cat. 11330032), 5% defined fetal bovine serum (HyClone Laboratories Inc., cat. SH30070.03), ITS premix universal culture supplement [insulin (5 microg/mL), transferrin (5 microg/mL), and selenious acid (5 ng/mL)] […]
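Note: spheroids exposed to agents for 7 days before readout.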
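Throughout, for viability, T/C: 100% = DMSO vehicle control wells.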

In the case of `CC(C)CC(NC(=O)C(Cc1ccccc1)NC(=O)c1cnccn1)B(O)O` (stereo not drawn), the IC50 was 51.3 nM and 24.9 nM and 19 nM. For the same molecule, the viability, T/C (compound 0.000949 µM) was 99.1% and 101% and 98%. Besides, where the note is “compound 0.003 µM”, the viability, T/C is 95.6% and 109% and 101%. Also, the viability, T/C (compound 0.00949 µM) was 106% and 110% and 101%. The viability, T/C (compound 0.03 µM) is 82.7% and 39.1% and 17.3%. For the same molecule, the viability, T/C (compound 0.0949 µM) was 12.9% and 18.7% and 11.8%. The viability, T/C (compound 0.3 µM) is 11.7% and 8.88% and 4.65%.

Regarding `CC1(C)CCC(CN2CCN(c3ccc(C(=O)NS(=O)(=O)c4ccc(NCC5CCOCC5)c([N+](=O)[O-])c4)c(Oc4cnc5[nH]ccc5c4)c3)CC2)=C(c2ccc(Cl)cc2)C1`, the IC50 was above 10000 nM. Besides, for the setting “compound 0.0316 µM”, the viability, T/C is 109% and 96.8% and 101%. Also, the viability, T/C (compound 0.1 µM) was 112% and 106% and 103%. In addition, the viability, T/C (compound 0.316 µM) was 112% (2×) and 103%. The viability, T/C (compound 1 µM) is 109% and 106% (2×). The viability, T/C (compound 3.16 µM) was 120% and 117% and 108%. For the setting “compound 10 µM”, the viability, T/C is 117% and 96.9% and 109%.

On to `CC1COCCN1c1cc(-c2ccnn2C)c2ccnc(-c3ccn[nH]3)c2n1` (stereo not drawn), for which the half-inhibitory concentration (IC50) was above 1000 nM. For the same molecule, the viability, T/C (compound 0.00316 µM) is 112% and 105% and 104%. Also, the viability, T/C (compound 0.01 µM) is 106% and 114% and 100%. For the same molecule, the viability, T/C (compound 0.0316 µM) is 101% (2×) and 104%. The viability, T/C (compound 0.1 µM) was 106% and 102% and 103%. Also, the viability, T/C (compound 0.316 µM) is 101% and 86.3% and 100%. The viability, T/C (compound 1 µM) is 85.1% and 68% and 73.8%.

In the case of `CCN(c1cc(-c2ccc(CN3CCOCC3)cc2)cc(C(=O)NCc2c(C)cc(C)[nH]c2=O)c1C)C1CCOCC1`, the IC50 is above 3000 nM. The viability, T/C (compound 0.00949 µM) was 107% and 101% and 108%. For the same molecule, for the setting “compound 0.03 µM”, the viability, T/C was 102% and 103% and 122%. Also, where the note is “compound 0.0949 µM”, the viability, T/C is 102% and 86.6% and 107%. Moreover, the viability, T/C (compound 0.3 µM) was 102% and 99.9% and 101%. In addition, the viability, T/C (compound 0.949 µM) was 94.9% and 104% and 108%. For the same molecule, under “compound 3 µM”, the viability, T/C is 102% and 91% and 101%.

As to `CC[C@@]1(O)C(=O)OCc2c1cc1n(c2=O)Cc2cc3c(CN(C)C)c(O)ccc3nc2-1`, the IC50 was above 100 nM. Moreover, for the setting “compound 0.000316 µM”, the viability, T/C was 109% and 97.4% and 106%. In addition, the viability, T/C (compound 0.001 µM) is 110% and 94.7% and 90.2%. Further, the viability, T/C (compound 0.00316 µM) is 107% and 97.5% and 93.5%. Further, the viability, T/C (compound 0.01 µM) was 100% and 103% and 93.5%. In addition, the viability, T/C (compound 0.0316 µM) was 95% and 105% and 97.2%. The viability, T/C (compound 0.1 µM) is 96.3% and 83.8% and 91.8%.

Turning to `CCc1c2c(nc3ccc(O)cc13)-c1cc3c(c(=O)n1C2)COC(=O)[C@]3(O)CC`, the IC50 is above 300 nM. Besides, the viability, T/C (compound 0.000949 µM) is 105% and 85% and 104%. Further, under “compound 0.003 µM”, the viability, T/C was 105% and 102% and 103%. For the same molecule, the viability, T/C (compound 0.00949 µM) is 102% and 85.4% and 107%. Under “compound 0.03 µM”, the viability, T/C was 83% and 70.5% and 95.8%. In addition, the viability, T/C (compound 0.0949 µM) was 77.1% and 65.4% and 83.9%. Where the note is “compound 0.3 µM”, the viability, T/C is 68.5% and 50.5% and 59.9%.

As to `COc1cc(C2c3cc4c(cc3C(OC3OC5COC(C)OC5C(O)C3O)C3COC(=O)C23)OCO4)cc(OC)c1O` (stereo not drawn), the IC50 was above 10000 nM. Also, for the setting “compound 0.0316 µM”, the viability, T/C was 98.8% and 103% and 94.7%. Besides, under “compound 0.1 µM”, the viability, T/C is 105% and 103% and 102%. The viability, T/C (compound 0.316 µM) was 95.7% and 114% and 106%. The viability, T/C (compound 1 µM) was 94.6% and 100% and 98.3%. Under “compound 3.16 µM”, the viability, T/C was 95.8% and 108% and 98.9%. Also, the viability, T/C (compound 10 µM) is 80% and 91.7% and 92.8%.

For `COc1cc(Nc2ncc3c(n2)-c2ccc(Cl)cc2C(c2c(F)cccc2OC)=NC3)ccc1C(=O)O`, the IC50 was above 10000 nM. In addition, the viability, T/C (compound 0.0316 µM) was 106% and 98.6% and 103%. In addition, the viability, T/C (compound 0.1 µM) is 105% and 95.3% and 116%. Further, the viability, T/C (compound 0.316 µM) is 92% and 95.6% and 98.8%. Moreover, the viability, T/C (compound 1 µM) is 91.3% and 90.4% and 99.3%. In addition, the viability, T/C (compound 3.16 µM) was 90.3% and 92.1% and 91.2%. Also, under “compound 10 µM”, the viability, T/C is 102% and 87.5% and 94.5%.

Turning to `COc1cccc2c1C(=O)c1c(O)c3c(c(O)c1C2=O)CC(O)(C(=O)CO)CC3OC1CC(N)C(O)C(C)O1` (stereo not drawn), the concentration for half-maximal inhibition (IC50) was > 10000 nM and 5590 nM and 6230 nM. In addition, where the note is “compound 0.0316 µM”, the viability, T/C is 100% and 108% and 103%. Besides, under “compound 0.1 µM”, the viability, T/C is 102% and 110% and 125%. Further, the viability, T/C (compound 0.316 µM) is 101% and 112% and 108%. For the same molecule, the viability, T/C (compound 1 µM) is 107% and 105% and 103%. Moreover, the viability, T/C (compound 3.16 µM) is 88% and 77.8% and 89.9%. The viability, T/C (compound 10 µM) is 65.5% and 21.7% and 22.8%.
